Our source for the logP, solubility and IC50 values is paper PMC10145393, “Virtual Screening Strategy to Identify Retinoic Acid-Related Orphan Receptor γt Modulators” (Molecules, 2023).

Where two headings read alike, the source gives them in different places.

Details of data set [1]: method as in vendor (SPECS). The following applies: reported by the vendor ref vendor (SPECS); cited from earlier work.
The nature of data set [2]: Solubility observed in experimental testing.
Data set [3] deals with T1, human RORγ hybrids of both isoforms 1 and 2 (RORγt) (Homo sapiens, UniProt P51449).
T1 sequence (P51449 259-518): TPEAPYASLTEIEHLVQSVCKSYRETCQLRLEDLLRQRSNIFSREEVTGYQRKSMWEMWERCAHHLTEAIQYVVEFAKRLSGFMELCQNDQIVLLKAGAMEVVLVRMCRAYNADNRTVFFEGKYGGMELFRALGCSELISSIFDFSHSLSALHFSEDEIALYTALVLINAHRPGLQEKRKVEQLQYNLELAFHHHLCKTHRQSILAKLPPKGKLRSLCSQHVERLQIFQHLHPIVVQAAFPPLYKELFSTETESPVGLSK
Nature of the data set: Human RAR-related Orphan Receptor Gamma Reporter Assay System (Indigo Biosciences). Format: cell-based. How it is done: The activity of the 28 selected molecules was determined at 5 μM concentration using the Human RAR-related Orphan Receptor Gamma Reporter Assay System in a 96-well format (Indigo Biosciences, State College, PA, USA). The assay utilizes human reporter cells designed to express high levels of human RORγ hybrids of both isoforms 1 and 2 and is capable of quantifying inverse agonism and agonism. […] Concentrations of the tested molecules varied from 10 µM to 8 nM, using 1/3-fold decrements within the range of 6 µM to 8 nM. Otherwise, the kit protocol was followed, and the analysis was done similarly as in a prior study.
A general note: A reporter such as luciferase makes a cellular process visible.

The mark [4] stands for this setting: RORγ reporter assay, concentrations 10 µM to 8 nM, read-out: IC50.

As for `COc1cc(C(=O)N2CCN(CCN3C(=O)c4cccc5cccc(c45)C3=O)CC2)cc(OC)c1OC` [Compound 2], the logP in data set [1] is on record as 1.69. In addition, the solubility entry in data set [2] is given as “non-soluble”.

Consider `O=C(O)c1ccc(CN2C(=O)/C(=C/c3cn(Cc4ccc([N+](=O)[O-])cc4)c4ccccc34)S/C2=N/c2ccccc2)cc1` [Compound 15], for which the concentration for half-maximal inhibition (IC50) in data set [3] (setting [4]) stood at 7300 nM.

On to `O=C(COC(=O)c1ccc(N2C(=O)C3C4c5ccccc5C(c5ccccc54)C3C2=O)cc1)c1cccc([N+](=O)[O-])c1` (stereo not shown) [Compound 17], for which the lipophilicity (logP) in data set [1] is 2.93. In addition, the solubility entry in data set [2] is listed as “non-soluble”.

Turning to `COc1ccc(Cn2c(-c3ccc(S(=O)(=O)N4CCOCC4)cc3)cs/c2=N\c2ccccc2OC)cc1` [Compound 21], in data set [3] (setting [4]), the IC50 worked out at 10700 nM.

In the case of `COc1ccc(-c2cc(C(F)(F)F)n3ncc(C(=O)N4CCN(C(c5ccccc5)c5ccccc5)CC4)c3n2)cc1` [Compound 10], the IC50 in data set [3] (setting [4]) stood at 9700 nM.

In data set [3], `COc1cc(C2C(C#N)=C(N)N(Nc3ccccc3)C3=C2C(=O)CC(C)(C)C3)ccc1OCc1ccccc1` (stereo not shown) [Compound 26] registered a half-inhibitory concentration (IC50) of 3200 nM.

Turning to `COc1cc(C2C(C(=O)OC3CCCCC3)=C(C)NC3=C2C(=O)CC(c2ccc(OC)c(OC)c2)C3)ccc1O` (stereo not shown) [Compound 13], in data set [3] (setting [4]), the 50% inhibitory concentration (IC50) turned out to be 2600 nM.

Take `Clc1ccccc1COc1cccc(/C=N/Nc2nc(N3CCOCC3)nc(N3CCOCC3)n2)c1` [Compound 9]: in data set [3] (setting [4]), the IC50 was found to be 1700 nM.

As to `COc1ccc(-c2nc3ccccc3c(C(=O)Nc3ccc(S(=O)(=O)Nc4cc(C)on4)cc3)c2C)cc1` [Compound 19], in data set [3] (setting [4]), the concentration for half-maximal inhibition (IC50) worked out at 1100 nM.

Turning to `COc1cc(C2C(C#N)=C(N)N(Nc3ccccc3)C3=C2C(=O)CC(C)(C)C3)ccc1OCc1cccc(F)c1` (stereo not shown) [Compound 25], the 50% inhibitory concentration (IC50) in data set [3] was 2400 nM.

`COc1ccc(C2CC(=O)C3=C(C2)NC(C)=C(C(=O)OC2CCCCC2)C3c2cccc(O)c2)cc1OC` (stereo not shown) [Compound 14]: the IC50 in data set [3] (setting [4]) was 2300 nM.

What is called logP is a log measure of how a compound divides between an organic and an aqueous phase. As a reminder, the IC50 is the concentration at which inhibition is half-maximal.
